Legend:
Type in all cases: in vivo, human
[1] = test system: retroperitoneal neuroendocrine tumor; experiment: Clinical case Example 5: treatment of a patient, CT scan of target lesions; conditions: prior therapy in patient history
[2] = test system: neuroendocrine tumor which tend to be atypical carcinoid; experiment: Clinical case Example 4: treatment of a patient, CT scan of target lesions; conditions: prior therapy in patient history; 4 mg once a month; after two cycles
Description: A patient was diagnosed with neuroendocrine tumor which tend to be atypical carcinoid after a chest tumor puncture by pathology exam, then the patient was treated with chemotherapy of paclitaxel, etoposide and cisplatin for three cycles, a CT scan was performed after the treatment, efficacy of the therapy was evaluated as SD, followed by Right anterior mediastinal mass resection and partial right upper lobe resection. […] Local chest radiotherapy was performed in the first to second month after operation, and evaluated as SD after the treatment, during which III° radiation esophagitis occurred. […] Temozolomide and capecitabine was then given for 2 cycles from the 23rd month to 25th month after operation, and efficacy was evaluated as SD (large), during this period, pain in both lower extremities occurred, and even got worse. Then 4 mg of zoledronic acid was given once a month, the efficacy was evaluated as PD by CT scan after two cycles of the treatment, followingly, Shanlong (octreotide acetate microspheres for injection) was given for 1 cycle, the efficacy was evaluated as PD by CT scan which was performed after 27 months postoperatively, and the sum of the target lesion diameters was 179 mm. […]

[3] = test system: ampullary neuroendocrine tumor; experiment: Clinical case Example 10: treatment of a patient, CT scan of metastatic lesions; conditions: prior therapy in patient history; 10mg qd orally; CT and MRI on May 25, 2018
Source text: A patient, underwent a laparotomy on August 18, 2016, the gallbladder, distal part of the stomach, duodenum, and part of the pancreas were removed. […] The patient was diagnosed with ampullary neuroendocrine tumor (high proliferative activity, mitotic count, […]) on November 4, 2016, which was located in the ampulla, the common bile duct, duodenal papilla and major pancreatic duct were invaded, intravascular tumor thrombus was visible and pancreatic tissue was also invaded, immunohistochemistry: AFP (-).
10mg of everolimus (qd) was administered orally from February 7 to May 25, 2018, and the efficacy was evaluated as SD on March 29, 2018.
A daily dose of 12 mg of dihydrochloride of Compound I capsule was given once a day from July 4, 2018 (two-week administration period and one-week withdrawal period, i.e. three weeks as one treatment cycle).

**Q.** For thymosin, which “reexamination (prior therapy)” value ([1]; Saisheng and thymosin given together) is on record?
**A.** no response

**Q.** For CCN(CC)CCNC(=O)c1c(C)[nH]c(/C=C2\C(=O)Nc3ccc(F)cc32)c1C [sunitinib malate], which “efficacy evaluated (prior therapy)” value ([1]; after Saisheng and thymosin) is on record?
**A.** PD (the sum of the diameters of target lesions of tumor increased by more than 20% from the baseline level)

**Q.** With O=P(O)(O)C(O)(Cn1ccnc1)P(=O)(O)O [zoledronic acid] as the compound, how does the “efficacy evaluated by CT scan (prior therapy)” value [2] read?
**A.** PD (the sum of the diameters of target lesions of tumor increased by more than 20% from the baseline level)

**Q.** Which “CT and MRI result (prior therapy)” value [3] does the source give for CO[C@H]1C[C@@H]2CC[C@@H](C)[C@@](O)(O2)C(=O)C(=O)N2CCCC[C@H]2C(=O)O[C@H]([C@H](C)C[C@@H]2CC[C@@H](OCCO)[C@H](OC)C2)CC(=O)[C@H](C)/C=C(\C)[C@@H](O)[C@@H](OC)C(=O)[C@H](C)C[C@H](C)/C=C/C=C/C=C/1C [everolimus] here?
**A.** the disease progressed

Reference: patent EP3682883A1, “QUINOLINE DERIVATIVE FOR TREATMENT OF NEUROENDOCRINE TUMORS” (Chia Tai Tianqing Pharmaceutical Group Co., Ltd., priority 2017, dated 2019)
